Measured values published in the supplement of paper PMC6965134.
± gives the standard deviation of the averaged measurements. Each block holds one molecule with its values, some of them ahead of it.

Assay: TIMS collisional cross section (CCS, N2) of the lipid ion; higher = larger ion cross section
Conditions: ionization mode: negative, one isomer drawn
Procedure: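 Lipid extracts of human plasma (NIST SRM 1950), mouse liver or HeLa cells were separated by nanoflow C18 LC (30 min gradient) and analysed by TIMS-PASEF on a timsTOF Pro. Ion mobility was calibrated with the Agilent tuning mix (negative mode ions) and converted to collisional cross sections (Mason–Schamp, N2).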

[1] = sample type: Mouse Liver, ion (formula + adduct): [C45H82NO8P+HCOO] 1-
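Note: lipids from MTBE extraction, five replicate injections per sample, 100 ms TIMS ramp spanning 0.6–1.95 Vs/cm², lipid identity assigned from PASEF MS/MS spectra.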

- TIMS collisional cross section (sample type: Human plasma, ion (formula + adduct): [C44H78NO7P+HCOO] 1-): 292.2 Å²
- TIMS collisional cross section (sample type: Human plasma, ion (formula + adduct): [C44H78NO7P-CH3] 1-): 275.1 Å²
Compound: CC/C=C\C/C=C\C/C=C\C/C=C\C/C=C\CCCC(=O)O[C@H](CO/C=C\CCCCCCCCCCCCCC)COP(=O)([O-])OCC[N+](C)(C)C [PC P- 16:0@_20:5]

- TIMS collisional cross section (sample type: Human plasma, ion (formula + adduct): [C43H74NO9P-H] 1-): 277.85 ± 0.78 Å²
- TIMS collisional cross section (sample type: Mouse Liver, ion (formula + adduct): [C43H74NO9P-H] 1-): 277.43 ± 0.71 Å²
Compound: CC/C=C\C/C=C\CC(O)/C=C/C=C\C/C=C\C/C=C\CCC(=O)O[C@H](COC(=O)CCCCCCCCCCCCCCC)COP(=O)(O)OCCN (some centres undefined) [Oxidized PE 16:0_22:6]

- TIMS collisional cross section (sample type: Human plasma, ion (formula + adduct): [C36H66O5-H] 1-): 254.4 Å²
Compound: CCCCC/C=C\C/C=C\CCCCCCCC(=O)O[C@@H](CO)COC(=O)CCCCCCCCCCCCCC [DG 15:0@_18:2_0:0]

- TIMS collisional cross section (sample type: Mouse Liver, ion (formula + adduct): [C24H47O9P-H] 1-): 221.1 Å²
Compound: CCCCCCCC/C=C\CCCCCCCC(=O)OC[C@@H](O)COP(=O)(O)OC[C@@H](O)CO [LPG 18:1_0:0]

- TIMS collisional cross section (sample type: Human plasma, ion (formula + adduct): [C45H75O10P+OAcO] 1-): 294.7 Å²
Compound: CC/C=C\C/C=C\C/C=C\C/C=C\C/C=C\C/C=C\CCC(=O)O[C@H](COC(=O)CCCCCCC/C=C\CCCCCCC)COP(=O)(O)OC[C@@H](O)CO [PG 17:1@_22:6]

- TIMS collisional cross section (sample type: Human plasma, ion (formula + adduct): [C43H78NO8P-H] 1-): 280.43 ± 1.2 Å²
Compound: CCCCC/C=C\C[C@H](O)/C=C/C=C\C/C=C\CCCC(=O)O[C@H](CO/C=C\CCCCCCCCCCCCCCCC)COP(=O)(O)OCCN [Oxidized PE 18:0@_20:4]

- TIMS collisional cross section (sample type: Mouse Liver, ion (formula + adduct): [C40H78NO8P-H] 1-): 271.2 Å²
Compound: CCCCCCCCC/C=C\CCCCCCCC(=O)O[C@H](COC(=O)CCCCCCCCCCCCCCC)COP(=O)(O)OCCN [PE 16:0_19:1]

- TIMS collisional cross section (sample type: Human plasma, ion (formula + adduct): [C45H78NO8P-H] 1-): 281.8 Å²
Compound: CC/C=C\C/C=C\C/C=C\C/C=C\C/C=C\C/C=C\CCC(=O)OC(COC(=O)CCCCCCCCCCCCCCCCC)COP(=O)(O)OCCN (centres undefined) [PE 18:0_22:6]

- TIMS collisional cross section (sample type: Human plasma, ion (formula + adduct): [C42H82NO7P+HCOO] 1-): 288.8 Å²
- TIMS collisional cross section (sample type: Human plasma, ion (formula + adduct): [C42H82NO7P-CH3] 1-): 271.8 Å²
- TIMS collisional cross section (sample type: Mouse Liver, ion (formula + adduct): [C42H82NO7P+HCOO] 1-): 290 Å²
Compound: CCCCC/C=C\C/C=C\CCCCCCCC(=O)O[C@H](COCCCCCCCCCCCCCCCC)COP(=O)([O-])OCC[N+](C)(C)C [PC O- 16:0@_18:2]

- TIMS collisional cross section (sample type: Mouse Liver, ion (formula + adduct): [C41H76NO8P+HCOO] 1-): 286.5 Å²
Compound: CCCCC/C=C\C/C=C\CCCCCCCC(=O)O[C@H](COC(=O)CCCCCCC/C=C\CCCCC)COP(=O)([O-])OCC[N+](C)(C)C [PC 15:1_18:2]

- TIMS collisional cross section (sample type: Human plasma, ion (formula + adduct): [C46H86NO8P+HCOO] 1-): 300.6 Å²
- TIMS collisional cross section (sample type: Mouse Liver, ion (formula + adduct): [C46H86NO8P+HCOO] 1-): 300 Å²
Compound: CCCCC/C=C\C/C=C\CCCC/C=C\CCCC(=O)O[C@H](COC(=O)CCCCCCCCCCCCCCCCC)COP(=O)([O-])OCC[N+](C)(C)C [PC 18:0_20:3]

- TIMS collisional cross section (sample type: Mouse Liver, ion (formula + adduct): [C43H76NO7P-H] 1-): 274.5 Å²
Compound: CC/C=C\C/C=C\C/C=C\C/C=C\C/C=C\CCCC(=O)O[C@H](CO/C=C\CCCCCCCCCCCCCCCC)COP(=O)(O)OCCN [PE P- 18:0@_20:5]

- TIMS collisional cross section (sample type: Human plasma, ion (formula + adduct): [C45H82NO8P-H] 1-): 283.6 Å²
- TIMS collisional cross section (sample type: Mouse Liver, ion (formula + adduct): [C45H82NO8P-H] 1-): 283 Å²
Compound: CCCCC/C=C\C/C=C\C/C=C\C/C=C\CCCCCC(=O)OC[C@H](COP(=O)(O)OCCN)OC(=O)CCCCCCCCCCCCCCCCC [PE 22:4_18:0]

- TIMS collisional cross section (sample type: Human plasma, ion (formula + adduct): [C34H68NO8P+HCOO] 1-): 270.8 Å²
Compound: CCCCCCCCCCCCCC(=O)O[C@H](COC(=O)CCCCCCCCCCC)COP(=O)([O-])OCC[N+](C)(C)C [PC 12:0_14:0]

- TIMS collisional cross section (sample type: Human plasma, ion (formula + adduct): [C47H82NO8P+HCOO] 1-): 301.2 Å²
- TIMS collisional cross section (sample type: Mouse Liver, ion (formula + adduct): [C47H82NO8P+HCOO] 1-): 301.2 Å²
Compound: CC/C=C\C/C=C\C/C=C\C/C=C\C/C=C\C/C=C\CCC(=O)O[C@H](COC(=O)CCCCCCCCCCCCCCCC)COP(=O)([O-])OCC[N+](C)(C)C [PC 17:0@_22:6]

- TIMS collisional cross section (sample type: Mouse Liver, ion (formula + adduct): [C25H49O12P-H] 1-): 232.6 Å²
Compound: CCCCCCCCCCCCCCCC(=O)OC[C@@H](O)COP(=O)(O)OC1C(O)C(O)C(O)[C@@H](O)C1O (some centres undefined) [LPI 16:0]

- TIMS collisional cross section [1]: 297.2 Å²
Compound: CCCCC/C=C\C/C=C\C/C=C\C/C=C\CCCC(=O)O[C@H](COC(=O)CCCCCCCCCCCCCCCC)COP(=O)([O-])OCC[N+](C)(C)C [PC 17:0_20:4]

- TIMS collisional cross section [1]: 296.7 Å²
Compound: CCCCC/C=C\C/C=C\C/C=C\C/C=C\CCCC(=O)O[C@H](COC(=O)CCCCCCCCCCCCCCCC)COP(=O)([O-])OCC[N+](C)(C)C [PC 17:0@_20:4]

- TIMS collisional cross section (sample type: Human plasma, ion (formula + adduct): [C43H74NO8P-H] 1-): 275 Å²
Compound: CC/C=C\C/C=C\C/C=C\C/C=C\C/C=C\C/C=C\CCC(=O)OC(COC(=O)CCCCCCCCCCCCCCC)COP(=O)(O)OCCN (centres undefined) [PE 16:0@_22:6]

- TIMS collisional cross section (sample type: Human plasma, ion (formula + adduct): [C31H49O12P-H] 1-): 243.8 Å²
Compound: CC/C=C\C/C=C\C/C=C\C/C=C\C/C=C\C/C=C\CCC(=O)OC[C@@H](O)COP(=O)(O)OC1[C@H](O)[C@H](O)C(O)[C@H](O)[C@H]1O (some centres undefined) [LPI 22:6_0:0]

- TIMS collisional cross section (sample type: Human plasma, ion (formula + adduct): [C45H76NO8P-H] 1-): 278.4 Å²
Compound: CC/C=C\C/C=C\C/C=C\C/C=C\C/C=C\C/C=C\CCC(=O)OC[C@H](COP(=O)(O)OCCN)OC(=O)CCCCCCC/C=C\CCCCCCCC [PE 22:6@_18:1]

- TIMS collisional cross section (sample type: Human plasma, ion (formula + adduct): [C42H83O8P-CH3] 1-): 286.6 Å²
Compound: CCCCCCCCCCCCCCCCCCCCCC(=O)O[C@H](COC(=O)CCCCCCCCCCCCCCCC)COP(=O)(O)O [PA 17:0_22:0@]

Compound: CCCCCCCC/C=C\CCCCCCCC(=O)OC[C@@H](O)COP(=O)(O)OCCN [LPE 18:1_0:0]
- TIMS collisional cross section (sample type: Human plasma, ion (formula + adduct): [C23H46NO7P-H] 1-): 215.5 ± 1 Å²
- TIMS collisional cross section (sample type: Mouse Liver, ion (formula + adduct): [C23H46NO7P-H] 1-): 215.2 ± 1 Å²

- TIMS collisional cross section (sample type: Mouse Liver, ion (formula + adduct): [C39H72NO8P-H] 1-): 264 Å²
Compound: CCCCC/C=C\C/C=C\CCCCCCCC(=O)OC[C@H](COP(=O)(O)OCCN)OC(=O)CCCCCCC/C=C\CCCCCC [PE 18:2_16:1@]

- TIMS collisional cross section (sample type: Mouse Liver, ion (formula + adduct): [C48H75O10P-H] 1-): 291.4 Å²
Compound: CC/C=C\C/C=C\C/C=C\C/C=C\C/C=C\C/C=C\CCC(=O)O[C@H](COC(=O)CCC/C=C\C/C=C\C/C=C\C/C=C\CCCCC)COP(=O)(O)OC[C@@H](O)CO [PG 20:4_22:6]

- TIMS collisional cross section (sample type: Mouse Liver, ion (formula + adduct): [C48H84NO7P-CH3] 1-): 285.8 Å²
Compound: CC/C=C\C/C=C\C/C=C\C/C=C\C/C=C\C/C=C\CCC(=O)O[C@H](CO/C=C\CCCCCCCCCCCCCCCC)COP(=O)([O-])OCC[N+](C)(C)C [PC P- 18:0@_22:6]

- TIMS collisional cross section (sample type: Human plasma, ion (formula + adduct): [C44H80NO7P+AcO] 1-): 296.2 Å²
- TIMS collisional cross section (sample type: Human plasma, ion (formula + adduct): [C44H80NO7P-H] 1-): 278.5 Å²
- TIMS collisional cross section (sample type: Mouse Liver, ion (formula + adduct): [C44H80NO7P+HCOO] 1-): 292.2 Å²
- TIMS collisional cross section (sample type: Mouse Liver, ion (formula + adduct): [C44H80NO7P-CH3] 1-): 275.7 Å²
Compound: CC/C=C\C/C=C\C/C=C\C/C=C\CCCCCCC(=O)O[C@H](COCCCCCCCC/C=C\CCCCCC)COP(=O)([O-])OCC[N+](C)(C)C [PC O- 16:1@_20:4]

- TIMS collisional cross section (sample type: Mouse Liver, ion (formula + adduct): [C29H56NO8P+HCOO] 1-): 247.5 Å²
Compound: C=CCCC(=O)O[C@H](COC(=O)CCCCCCCCCCCCCCC)COP(=O)([O-])OCC[N+](C)(C)C [PC 16:0_5:1@]

- TIMS collisional cross section (sample type: Human plasma, ion (formula + adduct): [C26H48NO7P+HCOO] 1-): 238.3 ± 0.42 Å²
- TIMS collisional cross section (sample type: Human plasma, ion (formula + adduct): [C26H48NO7P-CH3] 1-): 220.2 Å²
Compound: CC/C=C\C/C=C\C/C=C\CCCCCCCC(=O)OC[C@@H](O)COP(=O)([O-])OCC[N+](C)(C)C [LPC 18:3_0:0]

- TIMS collisional cross section (sample type: Human plasma, ion (formula + adduct): [C41H72NO7P+AcO] 1-): 283.1 Å²
- TIMS collisional cross section (sample type: Human plasma, ion (formula + adduct): [C41H72NO7P-H] 1-): 268.9 Å²
Compound: CC/C=C\C/C=C\C/C=C\C/C=C\C/C=C\CCCC(=O)O[C@H](CO/C=C\CCCCCCCCCCCCCC)COP(=O)(O)OCCN [PE P- 16:0@_20:5]

- TIMS collisional cross section (sample type: Mouse Liver, ion (formula + adduct): [C43H82NO8P-H] 1-): 279.1 Å²
Compound: CCCCC/C=C\CCCCCCCC(=O)OC[C@H](COP(=O)([O-])OCC[N+](C)(C)C)OC(=O)CCCCCCCCC/C=C\CCCCCCCC [PC 15:1@_20:1]
